Reference: patent US10231992B2, “Antioxidant composition” (priority 2010, dated 2019)

Assays:
[1] = system: human fibroblasts; assay: MTT cytotoxicity and proliferation assay, limit concentrations of NAC and turmeric; format: cell-based
Description: The proliferation assay was carried out using the MTT colorimetric assay (Roche 11465007001). MTT is a yellow tetrazolium salt which forms formazan crystals in active cells. The formazan crystals are solubilized and the resulting color is quantified by means of spectrophotometry at 550 nm. […] The cells were maintained at 37° C. in an incubation stove. The following day, the treatments of NAC and Turmeric were added to the cell culture using a volume of 200 μL per well. The cell culture was left to incubate for 24, 48 and 72 hours. After each incubation time, 20 μL of MTT (a final concentration of 0.5 mg/mL) were added to each well. The plate was maintained for 4 hours in the incubation stove in order to allow the formation of formazan crystals. Subsequently, 100 μL of solubilizer was added to each well and the plate was left in the incubation stove until the following day.

[2] = system: reactive oxygen metabolites (ROMs) in human fibroblasts; assay: Intracellular ROM quantification with 2',7'-dichlorofluorescein diacetate probe in oxidized fibroblasts; format: cell-based; conditions: 1 mM H2O2; for F.U. (fluorescence units) / % decrease of ROS: 1% LBG, 5 mM NAC, 5 μM Turmeric; for F.U. (fluorescence units): fluorescence at 538 nm, 20 minutes after the start of the oxidation; for % decrease of ROS: with respect to the oxidized control
Description: To quantify the ROM-decreasing or antioxidant capacity of LBG, NAC and turmeric, the production of the ROMs generated upon oxidizing a culture of fibroblasts with a high concentration of hydrogen peroxide was measured.
The intracellular ROMs were quantified by means of the labeling thereof with the fluorescent probe 2′,7′-dichlorofluorescein diacetate (Molecular Probes D399). This probe is capable of emitting fluorescence at 538 nm when it is oxidized with reactive oxygen metabolites. The cell oxidation was carried out with 1 mM hydrogen peroxide.
The day before the assay, the fibroblasts were seeded in a 96-well plate at a density of 11500 cells per well. All the assays were performed in triplicate.
The treatments were prepared on the day of the experiment and the hydrogen peroxide was added just before the assay.
A solution of locust bean gum of 1% in distilled water was prepared and heated above 100° C. until completing dissolution of the gum.
The solution was then centrifuged for 20 minutes at 4000 rpm to remove the impurities from the mixture. The solution of the locust bean gum was lyophilized. The lyophilisate was dissolved in cell growth medium (DMEM+10% FBS) at a concentration of 1%.
Before adding the treatments and the hydrogen peroxide, the cells were labeled with the fluorescent probe at a concentration of 50 μM for 30 minutes in darkness.
The NAC and Turmeric treatments and the hydrogen peroxide were prepared just before starting the assay. To prepare the turmeric stock, it is necessary to know the purity of the Turmeric batch available and readjust the calculation to add the necessary concentration.
After labeling the cells, the antioxidant treatments and the hydrogen peroxide were added.
The fluorescence emitted at 538 nm by the probe was collected 20 minutes after the start of the oxidation.
However, in this case the decrease in intracellular ROM levels was taken as a reference with respect to the oxidized control.

SMILES | IC50 (concentration causing a 50% cell decrease with respect to the control) ([1]; NAC studied from 0.5 mM to 20 mM, 72 hours) | proliferative rate in the fibroblasts ([1]; concentrations of 1 and 5 mM) | cell proliferation with respect to the control ([1]; concentrations of 10 and 20 mM) | maximum limit of concentration ([1]; toxicity limit from MTT assay) | intracellular ROM levels [2] | F.U. (fluorescence units) [2] | % decrease of ROS [2] | IC50 ([1]; Homo sapiens, Fibroblast, 72 h, read-out: IC50 (concentration causing a 50% cell decrease with respect to the control)) | toxicity ([1]; concentration of 10 μM) | toxicity ([1]; concentrations of 1 and 5 μM) | toxicity ([1]; concentrations of 20 and 50 μM) | maximum limit of use in the mixture ([1]; toxicity limit from MTT assay)
CC(=O)N[C@@H](CS)C(=O)O [NAC, N-acetyl cysteine, reference compound] | none of the concentrations studied reached IC50 | improvement of the proliferative rate | progressively reduced cell proliferation | 10 mM | significant decrease of the intracellular ROM levels | 1.82 | 85% | – | – | – | – | –
COc1cc(/C=C/C(=O)/C=C(O)/C=C/c2ccc(O)c(OC)c2)ccc1O [Turmeric, curcumin] | – | – | – | – | significant decrease of the intracellular ROM levels | 2.31 | 81% | 7.5 µM | exceeds the limit at 72 hours | no toxic effects were observed | toxicity from the first 24 hours, exceeding the IC50 limit | 7.5 µM
